Data reported in ChEMBL document CHEMBL2151016, “Synthesis and in vitro antiproliferative activity of new 11-aminoalkylamino-substituted chromeno[2,3-b]indoles” (Eur J Med Chem, 2012).

Assays:
MV4-11 = test: Cytotoxicity against human MV4-11 cells after 72 hrs by MTT assay; details: MV4-11, 72 h
BALB/3T3 [1] = test: Ratio of IC50 for mouse BALB/3T3 cells to IC50 for human A549 cells
A549 [2] = test: Cytotoxicity against human A549 cells after 72 hrs by SRB assay; details: A549, 72 h
HCT-116 = test: Cytotoxicity against human HCT116 cells after 72 hrs by SRB assay; details: HCT-116, 72 h
BALB/3T3 [3] = test: Cytotoxicity against mouse BALB/3T3 cells after 72 hrs by SRB assay; details: BALB/3T3, 72 h
A549 [4] = test: Ratio of IC50 for human A549 cells to IC50 for human HCT116 cells; type: functional
L6 = test: Cytotoxicity against rat L6 cells; type: cell-based
BALB/3T3 [5] = test: Ratio of IC50 for mouse BALB/3T3 cells to IC50 for human HCT116 cells

In the case of O=S(=O)(NCCCNc1c2c3ccccc3nc-2oc2ccc(Br)cc12)c1ccccc1, the IC50 (MV4-11) is reported as > 19.6 µM.
O=S(=O)(NCCCNc1c2c3ccccc3nc-2oc2ccccc12)c1ccc2ccccc2c1 gave an IC50 (MV4-11) of 2.41 µM.
Clc1ccc2oc3nc4ccccc4c-3c(NCCc3c[nH]c4ccccc34)c2c1 gave an IC50 (MV4-11) of 7.57 µM.
With NCCCNc1c2c3ccccc3nc-2oc2ccc(Cl)cc12 the “Ratio IC50” value (BALB/3T3 [1]) was 2, the IC50 (A549 [2]) was 5.59 µM and the IC50 (MV4-11) was 0.86 µM. For the same compound, the IC50 (HCT-116) was 3.28 µM and the IC50 (BALB/3T3 [3]) was 10.1 µM.
For NCCCNc1c2c3ccccc3nc-2oc2ccccc12, the “Ratio IC50” value (BALB/3T3 [1]) was 2, the IC50 (A549 [2]) was 4.26 µM and the IC50 (MV4-11) was 1.02 µM. It also gave an IC50 (HCT-116) of 5.7 µM and an IC50 (BALB/3T3 [3]) of 13.4 µM.
Work on CCN(CC)CCCC(C)Nc1c2c3ccccc3nc-2oc2ccc(Br)cc12 (configuration not stated) yielded an IC50 (MV4-11) of 4.93 µM.
NCCCCNc1c2c3ccccc3nc-2oc2ccc(Cl)cc12 was tested, and the “Ratio IC50” value (A549 [4]) was 3, the “Ratio IC50” value (BALB/3T3 [1]) was 2 and the IC50 (A549 [2]) was 5.56 µM. It also gave an IC50 (MV4-11) of 0.76 µM, an IC50 (HCT-116) of 2.03 µM and an IC50 (BALB/3T3 [3]) of 11 µM.
For OCCCNc1c2c3ccccc3nc-2oc2ccc(Cl)cc12, the IC50 (MV4-11) was > 30.6 µM.
For O=S(=O)(NCCCNc1c2c3ccccc3nc-2oc2ccccc12)c1ccccc1, the IC50 (MV4-11) was > 23.2 µM.
Work on COc1ccc2oc3nc4ccccc4c-3c(NCCc3c[nH]c4ccccc34)c2c1 yielded an IC50 (MV4-11) of 3.04 µM.
OCCCNc1c2c3ccccc3nc-2oc2ccccc12 showed an IC50 (MV4-11) of 7.66 µM.
COc1ccc2oc3nc4ccccc4c-3c(Nc3ccccc3)c2c1 showed an IC50 (MV4-11) of 4.35 µM.
NCCCCNc1c2c3ccccc3nc-2oc2ccccc12 was tested, and the IC50 (A549 [2]) was 3.9 µM, the IC50 (MV4-11) was 0.76 µM and the IC50 (HCT-116) was 7.2 µM. It also gave an IC50 (BALB/3T3 [3]) of 12.1 µM.
With COc1ccc2c(c1)c(NCCCNC(=O)Nc1ccccc1)c1c3ccccc3nc-1n2C the IC50 (L6) was 2.7 µM.
Compound c1ccc2c3c(N4CCOCC4)c4ccccc4oc-3nc2c1 has an IC50 (MV4-11) of 9.2 µM.
CN1CCCN(c2c3c4ccccc4nc-3oc3ccc(Cl)cc23)CC1 was tested, and the IC50 (A549 [2]) was 10.8 µM, the IC50 (MV4-11) was 0.63 µM and the IC50 (HCT-116) was 9.68 µM. For the same compound, the IC50 (BALB/3T3 [3]) was 16.8 µM.
In the case of Clc1ccc2oc3nc4ccccc4c-3c(N3CCOCC3)c2c1, the IC50 (MV4-11) is reported as > 29.5 µM.
COc1ccc2oc3nc4ccccc4c-3c(NCCCNC(=O)Nc3ccccc3)c2c1 was tested, and the IC50 (L6) was 169 µM.
In the case of CCN(CC)CCCC(C)Nc1c2c3ccccc3nc-2oc2ccc(OC)cc12 (configuration not stated), the IC50 (MV4-11) is reported as 3.45 µM.
COc1ccc2oc3nc4ccccc4c-3c(NCCCN)c2c1 was tested, and the “Ratio IC50” value (A549 [4]) was 5, the “Ratio IC50” value (BALB/3T3 [5]) was 5 and the IC50 (A549 [2]) was 9.29 µM. The IC50 (MV4-11) was 0.12 µM, the IC50 (HCT-116) was 1.93 µM and the IC50 (BALB/3T3 [3]) was 6.87 µM.
Compound CS(=O)(=O)NCCCNc1c2c3ccccc3nc-2oc2ccccc12 has an IC50 (MV4-11) of 7.74 µM.
In the case of O=S(=O)(NCCCNc1c2c3ccccc3nc-2oc2ccc(Br)cc12)c1ccc2ccccc2c1, the IC50 (MV4-11) is reported as 5.75 µM.
For NCCCCNc1c2c3ccccc3nc-2oc2ccc(Br)cc12, the IC50 (A549 [2]) was 7.36 µM, the IC50 (MV4-11) was 0.72 µM and the IC50 (HCT-116) was 6.74 µM. The IC50 (BALB/3T3 [3]) was 9.55 µM.
For CCN(CC)CCCC(C)Nc1c2c3ccccc3nc-2oc2ccc(Cl)cc12 (configuration not stated), the IC50 (MV4-11) was 7 µM.
In the case of COc1ccc2oc3nc4ccccc4c-3c(N3CCOCC3)c2c1, the “Ratio IC50” value (A549 [4]) is reported as 5, the “Ratio IC50” value (BALB/3T3 [5]) is reported as 5 and the IC50 (A549 [2]) is reported as 10.6 µM. For the same compound, the IC50 (MV4-11) was 0.38 µM, the IC50 (HCT-116) was 1.7 µM and the IC50 (BALB/3T3 [3]) was 8.73 µM.
Compound CCN(CC)CCCC(C)Nc1c2c3ccccc3nc-2oc2ccccc12 (configuration not stated) has an IC50 (MV4-11) of 6.02 µM.
For Brc1ccc2oc3nc4ccccc4c-3c(N3CCOCC3)c2c1, the IC50 (MV4-11) was 25.3 µM.
C=CCNc1c2c3ccccc3nc-2oc2ccc(Cl)cc12 was tested, and the IC50 (MV4-11) was > 32.4 µM.
With COc1ccc2oc3nc4ccccc4c-3c(NCCCO)c2c1 the IC50 (MV4-11) was 7.26 µM.
With OCCCNc1c2c3ccccc3nc-2oc2ccc(Br)cc12 the IC50 (MV4-11) was > 26.9 µM.
In the case of NCCCNc1c2c3ccccc3nc-2oc2ccc(Br)cc12, the IC50 (A549 [2]) is reported as 6.19 µM, the IC50 (MV4-11) is reported as 0.97 µM and the IC50 (HCT-116) is reported as 4.19 µM. For the same compound, the IC50 (BALB/3T3 [3]) was 8.94 µM.
With CS(=O)(=O)NCCCNc1c2c3ccccc3nc-2oc2ccc(Br)cc12 the IC50 (MV4-11) was 6.22 µM.
